Source: patent US20230085307A1, “PYRIDAZINONE COMPOUND AND HERBICIDE” (NISSAN CHEMICAL CORPORATION, priority 2019, published 2023)

Columns and labels:
[1] = system: barnyard grass; assay: Test Example 4: herbicidal effect by soil treatment (Table 19, symbol H); assay type: in vivo, barnyard grass (Echinochloa crus-galli); details: amount of applied herbicide 320 g/ha
In short: (§1)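 Herbicidal effect was rated 3 weeks after treatment, using the scoring criteria of an earlier test. The compound, formulated as an emulsion and diluted in water to a set herbicide amount, had been sprayed uniformly on soil over freshly sown seeds. Growth took place in a greenhouse at 25° C. to 30° C.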

[2] = system: persian speedwell; assay: Test Example 5: herbicidal effect by foliage application, plastic box (Table 20, symbol R); assay type: in vivo, Persian speedwell (Veronica persica); details: for Herbicidal effect by foliage application, R: persian speedwell: amount of applied herbicide 320 g/ha, foliage application after 14-day growth, evaluated three weeks after application; for herbicidal effect on persian speedwell (R): foliage application, 320 g/ha, three weeks after application
In short: (§2)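 Foliar spray test: emulsion formulation diluted in water to a set application rate, sprayed onto 14-day-old plants raised in diluvial soil at 25° C to 30° C under glass. Both herbicidal effect and crop effect rated visually three weeks later.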

[3] = system: green foxtail; assay: Test Example 5: herbicidal effect by foliage application, plastic box (Table 20, symbol G); assay type: in vivo, green foxtail (Setaria viridis); details: for Herbicidal effect by foliage application, G: green foxtail: amount of applied herbicide 320 g/ha, foliage application after 14-day growth, evaluated three weeks after application; for herbicidal effect on green foxtail (G): foliage application, 320 g/ha, three weeks after application
In short: as §2

[4] = system: Chinese sprangletop; assay: Test Example 3: herbicidal effect by foliage application, Wagner pot (Table 18, symbol D); assay type: in vivo, chinese sprangletop (Leptochloa chinensis); details: 320 g/ha
In short: (§3)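 Plants were sown in alluvial soil held under 0.1–0.5 cm standing water and grown 14 days in a greenhouse at 25–30 °C. An emulsifiable formulation, water-diluted to the set dose, was then sprayed onto the foliage, and effects were scored three weeks later using previously defined criteria.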

[5] = system: southern crabgrass; assay: Test Example 5: herbicidal effect by foliage application, plastic box (Table 20, symbol F); assay type: in vivo, southern crabgrass (Digitaria ciliaris); details: for Herbicidal effect by foliage application, F: southern crabgrass: amount of applied herbicide 320 g/ha, foliage application after 14-day growth, evaluated three weeks after application; for herbicidal effect on southern crabgrass (F): foliage application, 320 g/ha, three weeks after application
In short: as §2

[6] = system: late watergrass; assay: Test Example 1: herbicidal activity, application before weed generation under submerged conditions (Table 16, symbol A); assay type: in vivo, late watergrass (Echinochloa oryzicola); details: amount of applied herbicide 320 g/ha
In short: (§4)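 Submerged Wagner pots (alluvial soil, 4 cm water) sown with weed seeds and planted with 2.5-leaf rice seedlings; emulsifiable concentrate diluted in water applied to water surface on sowing day. Held in greenhouse at 25-30 °C; injury scored 0-5 by herbicidal rate after three weeks.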

[7] = system: persian speedwell; assay: Test Example 4: herbicidal effect by soil treatment (Table 19, symbol R); assay type: in vivo, Persian speedwell (Veronica persica); details: amount of applied herbicide 320 g/ha
In short: as §1

[8] = system: lambsquarters; assay: Test Example 5: herbicidal effect by foliage application, plastic box (Table 20, symbol O); assay type: in vivo, lambsquarters (Chenopodium album); details: for Herbicidal effect by foliage application, O: lambsquarters: amount of applied herbicide 320 g/ha, foliage application after 14-day growth, evaluated three weeks after application; for herbicidal effect on lambsquarters (O): foliage application, 320 g/ha, three weeks after application
In short: as §2

[9] = system: Italian ryegrass; assay: Test Example 4: herbicidal effect by soil treatment (Table 19, symbol K); assay type: in vivo, Italian ryegrass (Lolium multiflorum); details: amount of applied herbicide 320 g/ha
In short: as §1

[10] = system: barnyard grass; assay: Test Example 3: herbicidal effect by foliage application, Wagner pot (Table 18, symbol H); assay type: in vivo, barnyard grass (Echinochloa crus-galli); details: 320 g/ha
In short: as §3

[11] = system: Italian ryegrass; assay: Test Example 5: herbicidal effect by foliage application, plastic box (Table 20, symbol K); assay type: in vivo, Italian ryegrass (Lolium multiflorum); details: for Herbicidal effect by foliage application, K: Italian ryegrass: amount of applied herbicide 320 g/ha, foliage application after 14-day growth, evaluated three weeks after application; for herbicidal effect on Italian ryegrass (K): foliage application, 320 g/ha, three weeks after application
In short: as §2

[12] = system: velvetleaf; assay: Test Example 5: herbicidal effect by foliage application, plastic box (Table 20, symbol M); assay type: in vivo, velvetleaf (Abutilon theophrasti); details: for Herbicidal effect by foliage application, M: velvetleaf: amount of applied herbicide 320 g/ha, foliage application after 14-day growth, evaluated three weeks after application; for herbicidal effect on velvetleaf (M): foliage application, 320 g/ha, three weeks after application
In short: as §2

[13] = system: windgrass; assay: Test Example 4: herbicidal effect by soil treatment (Table 19, symbol L); assay type: in vivo, windgrass (Apera spica-venti); details: amount of applied herbicide 320 g/ha
In short: as §1

[14] = system: oval-leafed pondweed; assay: Test Example 1: herbicidal activity, application before weed generation under submerged conditions (Table 16, symbol C); assay type: in vivo, oval-leafed pondweed (Monochoria vaginalis); details: amount of applied herbicide 320 g/ha
In short: as §4

[15] = system: windgrass; assay: Test Example 5: herbicidal effect by foliage application, plastic box (Table 20, symbol L); assay type: in vivo, windgrass (Apera spica-venti); details: for Herbicidal effect by foliage application, L: windgrass: amount of applied herbicide 320 g/ha, foliage application after 14-day growth, evaluated three weeks after application; for herbicidal effect on windgrass (L): foliage application, 320 g/ha, three weeks after application
In short: as §2

[16] = system: lambsquarters; assay: Test Example 4: herbicidal effect by soil treatment (Table 19, symbol O); assay type: in vivo, lambsquarters (Chenopodium album); details: amount of applied herbicide 320 g/ha
In short: as §1

Compound | Herbicidal effect by foliage application, R: persian speedwell [2] | Herbicidal effect by foliage application, G: green foxtail [3] | herbicidal effect on Chinese sprangletop (D) [4] | Herbicidal effect by foliage application, F: southern crabgrass [5] | Herbicidal effect, A: late watergrass [6] | Herbicidal effect by foliage application, O: lambsquarters [8] | herbicidal effect on barnyard grass (H) [10] | Herbicidal effect, C: oval-leafed pondweed [14] | H: barnyard grass, herbicidal effect grade [1] | R: persian speedwell, herbicidal effect grade [7] | K: Italian ryegrass, herbicidal effect grade [9] | L: windgrass, herbicidal effect grade [13] | O: lambsquarters, herbicidal effect grade [16] | herbicidal effect on persian speedwell (R) [2] | herbicidal effect on green foxtail (G) [3] | herbicidal effect on southern crabgrass (F) [5] | herbicidal effect on lambsquarters (O) [8] | herbicidal effect on Italian ryegrass (K) [11] | herbicidal effect on velvetleaf (M) [12] | herbicidal effect on windgrass (L) [15] | other results
CCSc1ccc(-c2sc3c(C)cccc3c2-c2c(O)c(C)nn(C)c2=O)cc1 [4-124] | 5 (Herbicidal rate of 90% or more (almost completely withered)) | 5 (Herbicidal rate of 90% or more (almost completely withered)) | 3 (Herbicidal rate of 40% or more and less than 70%) | 3 (Herbicidal rate of 40% or more and less than 70%) | 4 (Herbicidal rate of 70% or more and less than 90%) | 5 (Herbicidal rate of 90% or more (almost completely withered)) | 5 (Herbicidal rate of 90% or more (almost completely withered)) | 2 (Herbicidal rate of 20% or more and less than 40%) |  |  |  |  |  |  |  |  |  |  |  |  | Herbicidal effect by soil treatment, H: barnyard grass [1]: 3 (Herbicidal rate of 40% or more and less than 70%); Herbicidal effect by soil treatment, R: persian speedwell [7]: 4 (Herbicidal rate of 70% or more and less than 90%); Herbicidal effect by soil treatment, K: Italian ryegrass [9]: 4 (Herbicidal rate of 70% or more and less than 90%); Herbicidal effect by foliage application, K: Italian ryegrass [11]: 5 (Herbicidal rate of 90% or more (almost completely withered)); Herbicidal effect by foliage application, M: velvetleaf [12]: 5 (Herbicidal rate of 90% or more (almost completely withered)); Herbicidal effect by soil treatment, L: windgrass [13]: 0 (Herbicidal rate of 5% or less (almost no effect)); Herbicidal effect by foliage application, L: windgrass [15]: 5 (Herbicidal rate of 90% or more (almost completely withered)); Herbicidal effect by soil treatment, O: lambsquarters [16]: 5 (Herbicidal rate of 90% or more (almost completely withered))
COc1ccc(-c2sc3cc(Cl)c(Cl)cc3c2-c2c(O)c(C)nn(C)c2=O)cc1 [5-043] | 5 (Herbicidal rate of 90% or more (almost completely withered)) | 0 (Herbicidal rate of 5% or less (almost no effect)) | 3 (Herbicidal rate of 40% or more and less than 70%) | 0 (Herbicidal rate of 5% or less (almost no effect)) | 5 (Herbicidal rate of 90% or more (almost completely withered)) | 3 (Herbicidal rate of 40% or more and less than 70%) | 3 (Herbicidal rate of 40% or more and less than 70%) | 0 (Herbicidal rate of 5% or less (almost no effect)) | 0 (Herbicidal rate of 5% or less (almost no effect)) | 0 (Herbicidal rate of 5% or less (almost no effect)) | 0 (Herbicidal rate of 5% or less (almost no effect)) | 0 (Herbicidal rate of 5% or less (almost no effect)) | 0 (Herbicidal rate of 5% or less (almost no effect)) |  |  |  |  |  |  |  | Herbicidal effect by foliage application, K: Italian ryegrass [11]: 0 (Herbicidal rate of 5% or less (almost no effect)); Herbicidal effect by foliage application, M: velvetleaf [12]: 4 (Herbicidal rate of 70% or more and less than 90%); Herbicidal effect by foliage application, L: windgrass [15]: 0 (Herbicidal rate of 5% or less (almost no effect))
COc1ccccc1-c1sc2cc(C)c(C)cc2c1-c1c(O)c(C)nn(C)c1=O [5-090] |  |  | 2 (Herbicidal rate of 20% or more and less than 40%) |  | 3 (Herbicidal rate of 40% or more and less than 70%) |  | 5 (Herbicidal rate of 90% or more (almost completely withered)) | 3 (Herbicidal rate of 40% or more and less than 70%) | 0 (Herbicidal rate of 5% or less (almost no effect)) | 1 (Herbicidal rate of 5% or more and less than 20%) | 5 (Herbicidal rate of 90% or more (almost completely withered)) | 3 (Herbicidal rate of 40% or more and less than 70%) | 0 (Herbicidal rate of 5% or less (almost no effect)) | 4 (Herbicidal rate of 70% or more and less than 90%) | 5 (Herbicidal rate of 90% or more (almost completely withered)) | 1 (Herbicidal rate of 5% or more and less than 20%) | 4 (Herbicidal rate of 70% or more and less than 90%) | 5 (Herbicidal rate of 90% or more (almost completely withered)) | 5 (Herbicidal rate of 90% or more (almost completely withered)) | 4 (Herbicidal rate of 70% or more and less than 90%) | 
CCCC(=O)Oc1c(C)nn(C)c(=O)c1-c1c(-c2ccccc2OCC)sc2cc(C)c(C)cc12 [5-095] |  |  | 5 (Herbicidal rate of 90% or more (almost completely withered)) |  | 5 (Herbicidal rate of 90% or more (almost completely withered)) |  | 5 (Herbicidal rate of 90% or more (almost completely withered)) | 4 (Herbicidal rate of 70% or more and less than 90%) | 0 (Herbicidal rate of 5% or less (almost no effect)) | 3 (Herbicidal rate of 40% or more and less than 70%) | 0 (Herbicidal rate of 5% or less (almost no effect)) | 0 (Herbicidal rate of 5% or less (almost no effect)) | 0 (Herbicidal rate of 5% or less (almost no effect)) | 5 (Herbicidal rate of 90% or more (almost completely withered)) | 5 (Herbicidal rate of 90% or more (almost completely withered)) | 5 (Herbicidal rate of 90% or more (almost completely withered)) | 3 (Herbicidal rate of 40% or more and less than 70%) | 4 (Herbicidal rate of 70% or more and less than 90%) | 4 (Herbicidal rate of 70% or more and less than 90%) | 4 (Herbicidal rate of 70% or more and less than 90%) | 
CCOc1cc(F)ccc1-c1sc2cc(C)c(C)cc2c1-c1c(O)c(C)nn(C)c1=O [5-103] |  |  | 4 (Herbicidal rate of 70% or more and less than 90%) |  | 5 (Herbicidal rate of 90% or more (almost completely withered)) |  | 5 (Herbicidal rate of 90% or more (almost completely withered)) | 4 (Herbicidal rate of 70% or more and less than 90%) | 1 (Herbicidal rate of 5% or more and less than 20%) | 4 (Herbicidal rate of 70% or more and less than 90%) | 1 (Herbicidal rate of 5% or more and less than 20%) | 3 (Herbicidal rate of 40% or more and less than 70%) | 2 (Herbicidal rate of 20% or more and less than 40%) | 5 (Herbicidal rate of 90% or more (almost completely withered)) | 5 (Herbicidal rate of 90% or more (almost completely withered)) | 5 (Herbicidal rate of 90% or more (almost completely withered)) | 4 (Herbicidal rate of 70% or more and less than 90%) | 4 (Herbicidal rate of 70% or more and less than 90%) | 5 (Herbicidal rate of 90% or more (almost completely withered)) | 5 (Herbicidal rate of 90% or more (almost completely withered)) | 
